Consider 4 compounds from US11191803B2, “Laminin receptor peptides for therapy” (priority 2017, dated 2021).

Values joined by “and” are separate entries in the source; they are usually repeats but may differ in a detail not shown here. Equal values may be shown once.

The test system of assay [1] is ALS/MND patients. In words: Second Phase III trial of Edaravone in a selected mildly symptomatic group. Conditions: 24 weeks; mildly symptomatic subgroup.
Assay [2] deals with ALS/MND patients. Particulars: 24 week treatment; mixed patient population, median ALSFRS-R score 43; cited from earlier work.
Assay [3] concerns ALS/MND patients. Particulars: over 24 weeks; mildly symptomatic group; placebo lost 7.5 points; cited from earlier work.
For assay [4], the system named is ALS/MND patients. Particulars: cited from earlier work.
In assay [5] the test system is ALS/MND patients. Description: Clinical data: ALSFRS-R score in ALS/MND patients treated on a named patient basis for 6 months. It counts as in vivo, human. From the text: Clinical data were obtained from 19 ALS/MND patients treated on a named patient basis, for a period of 6 months, with the Peptide A dimer (SEQ ID NO: 3).
Average time from diagnosis to treatment was 17.8 months and the decline rate from diagnosis to start of treatment was established for each patient, which averaged at −1.24+/−0.7 decline per month on the ALSFRS-R score. Mean ALSFRS-R score at start of treatment was 32.94+/−8.13, median score 36 (min-max 15-44).

The test system of assay [6] is isolated rat islet cultures. Description: Glucagon secretion from collagenase-isolated rat pancreatic islet cultures (Quantikine ELISA). It counts as cell-based, Wistar rats. Conditions: peptide 1 μg/ml; for Glucagon level, Medium plus Peptide A: RPMI 1640, 11 mmol/L glucose, 10% FCS. The method, then: Digestion of pancreatic tissue with collagenase to isolate islets causes similar disruption to the signalling molecules via disorganization of ECM components including laminin, fibronectin and collagen (Lee & Blaufox, J Nucl Med, 1985, 25:72-76) that results in similarly abnormally high glucagon secretion.
Islets from 2 Wistar rats (˜250 g) were isolated according to the method of Li et al. (Nature Protocols, 2009, 4:1649-1652) and suspended in 30 ml RPMI 1640 containing 11 mmol/L glucose and 10% FCS. One ml islet suspension was added to each well of 24-well plates. Peptide A dimer (SEQ ID NO: 3) was dissolved in HBSS at 100 μg/ml and added to wells at a final concentration of 1 μg/ml. After appropriate incubation times, samples were removed for glucagon measurements using Quantikine ELISA Immunoassay (R&D Systems).

The test system of assay [7] is pancreatic α-cell line. Particulars: culture of a pancreatic α-cell line; cited from earlier work.

`CC1=NN(c2ccccc2)C(=O)C1` [Edaravone]: in assay [1], the “Slowing down of progression vs placebo” value is 33.3%. Besides, in assay [2], the “Efficacy in initial Phase III trial” value is given as “failed to show any efficacy”. In addition, the “Loss on the ALSFRS-R score” value in assay [3] is on record as 5 points.
In the case of `Nc1nc2ccc(OC(F)(F)F)cc2s1` [Riluzole], the Functional advantage result in assay [4] is listed as “no functional advantage demonstrated”.
Regarding “CVPSVPIQQFPTEDWS CVPSVPIQQFPTEDWS [Peptide A dimer]”, the “Participants who stabilized and rose one point each on the ALSFRS-R scale, share of group” value in assay [5] (2/19 patients) turned out to be 10.5%. In addition, the “% Slower Progression (actual vs predicted decline)” value is 62% and 62.07% in assay [5] (19 ALS/MND patients); 76.6% in assay [5] (subgroup 7 of 19 patients with faster predicted decline). The “ALSFRS-R Score, C Actual” value was 29.53 +/− 8.26 in assay [5] (19 ALS/MND patients, actual score to time of analysis, baseline 32.94) and 27.00 +/− 9.90 in assay [5] (subgroup 7 of 19 patients with faster predicted decline, baseline 30.43). For the same compound, the “Actual Decline (A-C) in ALSFRS-R score” value in assay [5] (19 ALS/MND patients, predicted decline A-B = 8.99) was “A-C = 3.41”; in assay [5] (subgroup 7 of 19 patients, predicted decline A-B = 14.7), “A-C = 3.43”. Further, the “% Reduction of glucagon secretion vs medium alone” value in assay [6] (4 hours) was determined as 31.6%; in assay [6] (24 hours), 44.8%; in assay [6] (72 hours) it was 55.2%. The “Glucagon level, Medium plus Peptide A” value in assay [6] (4 hours) is 425.6 ± 14.8 pg/mL; in assay [6] (24 hours), 144.8 ± 8.8 pg/mL; in assay [6] (72 hours) it was 98.3 pg/mL and 98.3 ± 4.7 pg/mL.
In the case of methyl-β-cyclodextrin, in assay [7], the Glucagon secretion change entry was “doubling of the glucagon secretion” and the Reduction of cholesterol entry was “approximately 60%”.
